How the values were obtained:
patients = experiment: double-blind multicenter clinical trial, olanzapine versus placebo; assay type: in vivo, human; conditions: patients randomized to olanzapine or placebo
From the text: A double-blind multicenter clinical trial was designed to assess the safety and efficacy of olanzapine. Patients were randomized to olanzapine or placebo.

5-HT1C receptor = experiment: pharmacological studies, 5-HT1C receptor activity
[1] = tested on: muscarinic cholinergic receptor; experiment: pharmacological studies, muscarinic cholinergic receptor activity

Cc1cc2c(s1)Nc1ccccc1N=C2N1CCN(C)CC1 [olanzapine, 2-methyl-4-(4-methyl-1-piperazinyl)-10H-thieno[2,3-b][1,5]benzodiazepine]
usefulness for treatment of addictive substance withdrawal (clinical observations) (patients): can be useful for the treatment of addictive substance withdrawal
activity at the 5-HT1C receptor (5-HT1C receptor): active
muscarinic cholinergic receptor activity [1]: has muscarinic cholinergic receptor activity

From patent publication US6159963A, “Method for treating substance abuse” (Eli Lilly and Company, priority 1996, dated 2000)
